{"source": "paper PMC7249060", "about": "“The Antiproliferative Effects of Flavonoid MAO Inhibitors on Prostate Cancer Cells” (Molecules, 2020)", "key": {"hMAO-A": {"molecular_target": "T1, hMAO-A (Homo sapiens, UniProt P21397)", "T1 construct": "purchased Sigma-Aldrich Co. (St. Louis, MO, USA)", "T1 sequence (P21397 1-527)": "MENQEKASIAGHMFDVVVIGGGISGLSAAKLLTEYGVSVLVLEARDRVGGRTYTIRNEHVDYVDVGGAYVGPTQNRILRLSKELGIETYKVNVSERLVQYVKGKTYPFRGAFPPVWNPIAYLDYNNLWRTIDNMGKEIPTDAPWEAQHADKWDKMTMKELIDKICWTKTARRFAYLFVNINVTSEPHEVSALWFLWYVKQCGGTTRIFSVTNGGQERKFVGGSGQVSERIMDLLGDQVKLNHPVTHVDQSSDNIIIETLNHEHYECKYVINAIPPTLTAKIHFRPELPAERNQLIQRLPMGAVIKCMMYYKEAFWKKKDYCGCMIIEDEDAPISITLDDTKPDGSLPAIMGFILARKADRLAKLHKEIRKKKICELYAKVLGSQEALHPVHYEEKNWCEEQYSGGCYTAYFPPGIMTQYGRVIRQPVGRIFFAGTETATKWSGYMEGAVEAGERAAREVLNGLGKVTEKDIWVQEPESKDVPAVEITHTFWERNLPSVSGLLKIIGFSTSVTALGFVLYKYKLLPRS", "assay": "MAO-Glow inhibitory potency (IC50) and relative selectivity", "format": "biochemical", "settings": "for hMAO-A relative selectivity (RSA): RSA = hMAO-B IC50/hMAO-A IC50; for MAO isozyme selectivity: comparison of hMAO-A and hMAO-B IC50s; for IC50: mean ± SEM, at least two experiments, LDS 40 μM", "description": "(§1) The inhibitory effects of the synthesized KKRs of hMAO-A and B were tested by measuring the decrease in arbitrary light units (ALU) signal produced by the optimized isozymes using the MAO-Glow™ Assay at 37 °C. In this assay, DMSO stock for each KKR compound was diluted with a reaction buffer of pH 7.4 to make a 4X working solution for a maximum final concentration of 100 μM and ≤1% DMSO. The experiments were run in the absence and presence of 4X the miscellaneous standards of MAO-BIs (DEP, PARG, and SAF) and MAO-AIs (PIRL and CLORG), with similar concentrations. In white opaque 96-well microplates, 12.5 μL of each compound was plated at RT and was followed by 25 μL of 2X cold hMAO-A or hMAO-B, for a final concentration of 0.44 U/mL. A related buffer substituted each isozyme to make the blank wells and substituted each compound to make the negative control wells. Following this, we added 12.5 μL of 4X LDS to make a final substrate concentration of 40- and 4-μM for hMAO-A and hMAO-B, respectively. All screen plates were incubated at 37 °C for 60 min. The plates of 50 μL/well were then taken out from the incubator, and their reactions were stopped by an equal volume of 50 μL of reporter luciferin detection reagent (RLDR). After 30 min, the luminescence signals for all plates were read on a Synergy HTX Multi-reader from Bio-Tek (Winooski, VT, USA).\n(§2) The experiments were performed in the presence and absence of the standard PILR. In white opaque 96-well plates, each KKR compound was serially diluted with a reaction buffer of pH 7.4 at the highest possible maximum final concentration, and the least used DMSO (<2%). In blank wells, the related reaction buffer substituted the isozyme. In negative control wells, the reaction buffer substituted each compound concentration. Then, the procedure was carried out as mentioned above (Section 4.2.2), and the reaction was detected on the Bio-Tek Synergy HTX Multi-Reader. The IC50 of each KKR on both isozymes was determined and subsequently the RSA and RSB was calculated.\n(§3) Statistical analyses were performed using the GraphPad Prism program (version 6.07 for Windows) from the GraphPad Prism Software Incorporated (San Diego, CA, USA). All data points and parameters were expressed as the mean ± SEM. All parameters were calculated from non-linear and linear regressions with the best R^2 values, no less than 93%. The inhibitory concentration of 50% of isozyme (IC50) of each compound was obtained by the interpolation of a normalized variable slope logarithmic curve. The RSA values of the selected compounds were calculated from their IC50 average means following the equation RSA = hMAO − B IC50/Hmao − A IC50(1)"}, "hMAO-B": {"molecular_target": "T2, hMAO-B (Homo sapiens, UniProt P27338)", "T2 construct": "purchased Sigma-Aldrich Co. (St. Louis, MO, USA)", "T2 sequence (P27338 1-520)": "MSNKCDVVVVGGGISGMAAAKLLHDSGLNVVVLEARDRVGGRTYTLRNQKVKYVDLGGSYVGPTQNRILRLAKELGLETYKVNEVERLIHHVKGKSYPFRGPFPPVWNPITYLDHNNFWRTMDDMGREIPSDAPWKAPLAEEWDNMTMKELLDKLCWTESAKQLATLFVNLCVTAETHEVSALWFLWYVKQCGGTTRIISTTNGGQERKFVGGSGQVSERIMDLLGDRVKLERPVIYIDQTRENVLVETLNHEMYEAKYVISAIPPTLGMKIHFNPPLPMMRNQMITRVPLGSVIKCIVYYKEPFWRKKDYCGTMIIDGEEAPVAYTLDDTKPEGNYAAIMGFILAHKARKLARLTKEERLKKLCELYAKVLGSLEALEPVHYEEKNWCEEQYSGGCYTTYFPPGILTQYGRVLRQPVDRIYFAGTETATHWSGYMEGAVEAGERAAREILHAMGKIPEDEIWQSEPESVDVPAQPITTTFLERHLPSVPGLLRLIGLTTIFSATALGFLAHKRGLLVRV", "assay": "MAO-Glow inhibitory potency (IC50)", "format": "biochemical", "settings": "mean ± SEM, at least two experiments; LDS 4 μM", "description": "as §1, §2, §3"}, "LNCaP cells": {"system": "LNCaP cells", "assay": "Antiproliferation dose-response assay for 72 h", "format": "cell-based", "settings": "Homo sapiens, mean ± SEM of two experiments, read-out: antiproliferative IC50", "description": "For the top effective KKRs, along with TAX, their potency to reduce the affected PCa cell line growth in a dose-dependent manner was determined using the resazurin fluorescence assay. We followed the same protocols and materials used for the antiproliferation screen assays (Section 4.3.2), with the following modifications. The maximum final KKR concentration used was 40 μM. The concentration of 8X of each KKR working solution in 1% HEPES 7.4 was serially diluted in a 3:1 ratio, compound to buffer, respectively. Each data set was collected from ten data points of 3.7–40 μM range. The control had the KKR substituted with buffer. The related IC50 averages were analyzed for the compounds that affected the cell lines the most."}, "PC3 cells": {"system": "PC3 cells", "assay": "Antiproliferation screen assay, resazurin, 72 h", "format": "cell-based, human", "settings": "50 μM"}}}
{"smiles": "O=c1c(O)c(-c2ccccc2)oc2c(Cl)cc(Cl)cc12", "note": "[KKR7, 6,8-dichloro-3-hydroxy-2-phenyl-4H-chromen-4-one]", "values": [{"measurement": "hMAO-A relative selectivity (RSA)", "setting": "hMAO-A", "result": "> 42105", "unit": "folds"}, {"measurement": "MAO isozyme selectivity", "setting": "hMAO-A", "result": "highly selective MAO-AIs"}, {"measurement": "IC50", "setting": "hMAO-A", "result": "16000 ± 530", "unit": "nM"}, {"measurement": "IC50", "setting": "hMAO-B", "result": "> 800000", "unit": "nM"}, {"measurement": "IC50", "setting": "LNCaP cells", "result": 9100, "unit": "nM"}]}
{"smiles": "O=C(/C=C/c1ccccc1)c1cc(Cl)cc(Cl)c1O", "note": "[KKR20, (E)-1-(3,5-dichloro-2-hydroxyphenyl)-3-phenylprop-2-en-1-one]", "values": [{"measurement": "MAO isozyme selectivity", "setting": "hMAO-A", "result": "in favor to inhibit MAO-B"}, {"measurement": "IC50", "setting": "hMAO-A", "result": "2940 ± 390", "unit": "nM"}, {"measurement": "IC50", "setting": "hMAO-B", "result": "790 ± 60", "unit": "nM"}, {"measurement": "IC50", "setting": "LNCaP cells", "result": 9200, "unit": "nM"}]}
{"smiles": "COc1cc(OC)c2c(=O)c(O)c(/C=C/c3cc(OC)c(OC)c(OC)c3)oc2c1", "note": "[KKR2A, (E)-3-hydroxy-5,7-dimethoxy-2-(3,4,5-trimethoxystyryl)-4H-chromen-4-one]", "values": [{"measurement": "MAO isozyme selectivity", "setting": "hMAO-A", "result": "non-selective MAO inhibitory activity"}, {"measurement": "IC50", "setting": "hMAO-A", "result": "1030 ± 40", "unit": "nM"}, {"measurement": "IC50", "setting": "hMAO-B", "result": "200 ± 20", "unit": "nM"}, {"measurement": "IC50", "setting": "LNCaP cells", "result": "> 40000", "unit": "nM"}, {"measurement": "antiproliferative effect in screen", "setting": "PC3 cells", "result": "no effects on any of the screened PCa cell models"}]}
{"smiles": "O=c1cc(-c2ccccc2)oc2cc(Cl)c(Cl)cc12", "note": "[KKR21, 6,7-dichloro-2-phenyl-4H-chromen-4-one]", "values": [{"measurement": "hMAO-A relative selectivity (RSA)", "setting": "hMAO-A", "result": "> 42105", "unit": "folds"}, {"measurement": "MAO isozyme selectivity", "setting": "hMAO-A", "result": "highly selective MAO-AIs"}, {"measurement": "IC50", "setting": "hMAO-A", "result": 19, "unit": "nM"}, {"measurement": "IC50", "setting": "hMAO-B", "result": "> 800000", "unit": "nM"}, {"measurement": "IC50", "setting": "LNCaP cells", "result": "> 40000", "unit": "nM"}, {"measurement": "antiproliferative effect in screen", "setting": "PC3 cells", "result": "no effects on any of the screened PCa cell models"}]}
{"smiles": "COc1cc(O)c(C(=O)/C=C/c2ccc(Cl)c(Cl)c2)c(OC)c1", "note": "[KKR11, (E)-3-(3,4-dichlorophenyl)-1-(2-hydroxy-4,6-dimethoxyphenyl)prop-2-en-1-one]", "values": [{"measurement": "MAO isozyme selectivity", "setting": "hMAO-A", "result": "non-selective MAO-I"}, {"measurement": "IC50", "setting": "hMAO-A", "result": "310 ± 30", "unit": "nM"}, {"measurement": "IC50", "setting": "hMAO-B", "result": "1120 ± 90", "unit": "nM"}, {"measurement": "IC50", "setting": "LNCaP cells", "result": 9500, "unit": "nM"}]}
